Test results: US12233129B2, “Methods and compositions for the treatment of cancer” (priority 2019, dated 2025)
“Also recorded” adds a separate entry of the source.

Tests used:
[1] = test system: HCT-116-iRFP cancer cells; assay: HCT-116-iRFP xenograft mouse model; assay type: in vivo, Hsd:Athymic Nude-Foxn1nu mice; details: IP 0.1 mg/kg every other day for 5 weeks versus Ethanol
Procedure: Five week Hsd:Athymic Nude-Foxn1^nu mice were implanted with 1×10^6 HCT-116-iRFP cancer cells at both flanks followed by IP injection of Ethanol (con) or Veratridine (VTD-0.1 mg/kg) every other day for 5 weeks. Twelve mice were used per treatment with 6 males and 6 females in each group.

HCT-116 = assay: Cell detachment assay and live cell imaging; assay type: cell-based, human; details: dose- and time-dependent
Procedure: (§1) Based on the above results, we then hypothesized that VTD-induced UBXN2A leads to apoptosis and cell death mimicking the Tet-on induced-UBXN2A model (FIG. 15). As cell detachment and cell shrinking are ubiquitous aspects of apoptosis, we examined these features in four cancer cell lines: HCT116 (WT-p53), LoVo (WT-p53), SW-480 (mutant-p53), and U2OS (WT-p53), all in the presence of VTD (FIG. 17, S4).
(§2) The viability of cells was calculated as % of control.
(§3) FIG. 17: Induction of apoptosis and in vitro cytotoxicity by VTD in a human cancer cell line with different statuses of p53 and mot-2. (A-D) Cells were treated with VTD for 24, 48, and 72 hours. After incubation, dead cells were washed off, and the remaining attached cells were calculated by counting in five random fields using the Axiovert 200 M inverted microscope and AxioVision software (cell detachment assay). The % of cells attached was calculated as % of control cells. […] The data is shown as mean+SEM of three independent experiments (n=3, *p<0.05). (E-K) Cells were plated for 5 days, and the colonies of cells were treated with different concentration of VTD. The colonies of viable cells were stained with crystal violet dye and absorbance, as an index of measurement of colony forming units, was read at 562 nm (clonogenic survival assay). VTD induced a significant decrease in cell viability in a p53- and differentiation grade manner in HCT-116 poorly differentiated cells (E), HCT 116 p53+/−(F), HCT-116 p53−/− (G), LoVo well-differentiated cells (H), SW-480 (K), and two non-colon cancer cells: HepG2 (I) and U2OS (J). The data is shown as mean+SEM of three independent experiments (n=3, *p<0.05). (L) Determination of endogenous levels of mot-2, UBXN2A, HSC70, and p53 proteins in various cancer cell lines using WB. (M) HCT-116 cells were treated with VTD (10 and 30 μM) and cytoplasmic and nuclear fractions were subjected to WB. HSC70 and Orc-2 antibodies were used as cytoplasmic and nuclear markers, respectively.

LoVo [2] = assay: Cell detachment assay and live cell imaging; assay type: cell-based, human; details: dose- and time-dependent
Procedure: as §1, §2, §3

SW480 = assay: Cell detachment assay and live cell imaging; assay type: cell-based, human; details: mutant p53
Procedure: as §1, §2, §3

U2OS = assay: Cell detachment assay and live cell imaging; assay type: cell-based, human; details: dose- and time-dependent
Procedure: as §1, §2, §3

HCT-116 p53−/− = assay: MTT cell viability assay; assay type: cell-based, human
Procedure: (§4) We decided to confirm whether VTD-induced tumor suppression is indeed mediated via the UBXN2A-mot-2-p53 axis (FIG. 18H). After initial verification with WB (FIG. 18A), HCT-116 (p53+/+ and p53 −/−) and LoVo were treated with VTD for 24, 48, and 72 hours (FIG. 18B-D). […] We defined this phenomenon as a delayed cytotoxic response, since it occurs through UBXN2A transcription, as previously described for other anti-cancer agents. […] In the second set of experiments, we treated two stable UBXN2A silenced clones of HCT-116 along with controls with VTD. […] Staurosporine-treated cells were used as a positive control (S4F). […] Finally, to understand the contribution of mot-2 to the anti-cancer mechanism of VTD, we used a mot-2 inhibitor known as MKT-077 [7] along with VTD in well-differentiated SW-48 (WT-p53) colon cancer cells for 72 hours. Due to the critical role of mot-2 in the mitochondria, we could not use a silencing strategy for mot-2 in this set of experiments.
as §2
(§5) FIG. 18: Veratridine (VTD) functions via the UBXN2A-mot-2-p53 axis. (A) WB confirmed the presence and the absence of p53 protein in HCT-116 p53^(+/+) and HCT-116 p53^(−/−) cancer cell lines, respectively. […] (F) In another set of experiments, UBXN2A-silenced cells were treated with VTD (100, 200, and 300 μM) for 24 hours. Cells were then labelled with Sytox Red followed by flow cytometry analysis. […] (G) SW48 well-differentiated colon cancer cells with WT-p53 were treated with MKT-077 (5 mg/ml), an mot-2 inhibitor, along with VTD for 72 hours. […] (H) This flowchart recapped the sequence of proteins which activate and function upon VTD exposure to decrease cell viability. The data is shown as mean±SEM of three independent experiments (n=3) in triplicate where *p<0.05 using Benferroni's modified student's t-test.

HCT-116 p53+/+ = assay: MTT cell viability assay; assay type: cell-based, human
Procedure: as §4, §2, §5

LoVo [3] = assay: MTT cell viability assay; assay type: cell-based, human
Procedure: as §4, §2, §5

## COc1ccc(C(=O)O[C@H]2CC[C@@]3(C)[C@@H]4CC[C@H]5[C@]6(O)C[C@H](O)[C@@]7(O)[C@@H](CN8C[C@@H](C)CC[C@H]8[C@@]7(C)O)[C@]6(O)C[C@@]53O[C@]24O)cc1OC [VTD, Veratridine]
[1]
  growth of tumor: slowdown growth of tumor
HCT-116; 24, 48 and 72 hours
  cell detachment (% of cells attached): significantly increases cell detachment; also recorded: significantly decreases the % of cells attached
HCT-116
  cell shrinking and rounding (live cell imaging): induces cell shrinking and rounding
LoVo [2]; 24, 48 and 72 hours
  cell detachment (% of cells attached): significantly increases cell detachment; also recorded: significantly decreases the % of cells attached
LoVo [2]
  cell shrinking and rounding (live cell imaging): induces cell shrinking and rounding
SW480; 24, 48 and 72 hours
  cell detachment (% of cells attached): no effect on cell detachment; also recorded: not with mutant p53
SW480
  cell shrinking and rounding (live cell imaging): remain unchanged
U2OS; 24, 48 and 72 hours
  cell detachment (% of cells attached): significantly increases cell detachment; also recorded: significantly decreases the % of cells attached
U2OS
  cell shrinking and rounding (live cell imaging): induces cell shrinking and rounding
HCT-116 p53−/−; 48 and 72 hours
  cell viability (MTT): started to respond to VTD at higher doses after 48 hours; also recorded: more resistance to VTD's effects
HCT-116 p53−/−; 24 hour treatment
  cell viability (MTT): not sufficient to produce any cytotoxic or anti-proliferative effect
HCT-116 p53+/+; 48 and 72 hours, compared with HCT-116 p53−/−
  cell viability (MTT): significantly lower
HCT-116 p53+/+; 24 hour treatment
  cell viability (MTT): not sufficient to produce any cytotoxic or anti-proliferative effect
LoVo [3]; 48 and 72 hours
  cell viability (MTT): reduction of cell viability reached a maximum at 72 hours; also recorded: highest sensitivity to VTD
LoVo [3]; 24 hour treatment, higher doses
  cell viability (MTT): significantly decreases the viability
